Experimental data published in a melting point compilation (Tetko et al.; mined from patent text by program, amines drawn as free bases though some values may be those of a salt).

Structure (SMILES) | melting point [°C]
COc1c(OCc2ccccc2)c(OC)c2c(=O)cc(-c3ccc(OCc4ccccc4)cc3)oc2c1OC | 172 to 173
CCc1nn(Cc2cc(O)n[nH]2)c(CC)c1Oc1cc(Cl)cc(Cl)c1 | 142 to 144
CCCCc1cc2cc(N)ccn2c1C(=O)c1ccc(OCCCN(CCCC)CCCC)cc1 | 88 to 89
CCOC(=O)NC(=O)C(c1cccc(C)c1)c1ncc(C(F)(F)F)cc1Cl (centres undefined) | 146 to 147
O=C(CCl)COc1c(Cl)cc(Cl)cc1Cl | 55
N#CCc1cccc(C#CCOc2ccc(Br)cn2)c1 | 121 to 123
Cc1c(-c2ccc(O)cc2)sc(C=O)c1-c1ccc(O)cc1 | 223 to 225
[N-]=[N+]=NC1CC(n2cc(C(I)=CI)c(=O)[nH]c2=O)OC1COC(c1ccccc1)(c1ccccc1)c1ccccc1 (centres undefined) | 139
O=C(Nc1ccn(C2OC(CO)C(O)C2(F)F)c(=O)n1)OCc1ccc([N+](=O)[O-])s1 (centres undefined) | 144 to 148
CC(C)C(=O)Nc1csc(Br)n1 | 95
CC(C)(C)OC(=O)Nc1cc(OCC#N)c(-c2ccc(F)cc2)cc1[N+](=O)[O-] | 148
O=c1[nH]nc2c3c(cccc13)N=C(CN1CCCNCC1)N2 | 147 to 149
Clc1ccc(CCC(Cn2ccnc2)Sc2cccc(Cl)c2Cl)cc1 (centres undefined) | 134 to 136
CC(=O)Nc1c(C)ccc(O)c1C | 190 to 195
Nc1ncc(S(=O)c2ccncc2)s1 (centres undefined) | 193 to 195
CCOC(=O)C(=O)CC(=O)c1ccc2c(c1)c(=O)c(CCC(=O)O)cn2Cc1ccc(F)cc1 | 177 to 180
CCCCC(=O)Nc1ccc(Cl)c(-n2nc(CCCC)c(Cc3ccc(-c4ccccc4S(=O)(=O)NC(=O)c4ccccc4Cl)cc3)c2C(=O)OCC)c1 | > 95
O=C(Cc1ccccc1NS(=O)(=O)C(F)(F)F)N1CCOCC1 | 95.5 to 97
O=S(=O)(c1ccccc1)n1ccc2ccc3c4cc(Br)ccc4[nH]c3c21 | 173 to 175
CC(=O)Oc1c(C)cc(NC(=O)Nc2c(-c3ccccc3C)c3cc(Cl)c(C)cc3oc2=O)cc1C | 240 to 242
CN(C(=O)c1ccc2nonc2c1)C1CCCCC1O (centres undefined) | 148 to 149
CNS(=O)(=O)c1cn(C)c2ccccc2c1=O | 248 to 250
COC(=O)c1ccc(Oc2ccc(Oc3ccccc3)cc2)cc1 | 14
O=C(O)CCCOn1nnc2ccc(Cn3ccnc3)cc21 | 170
COc1cc(-c2ncn(-c3ccc(C(F)(F)F)cc3)c2-c2ccc(N(C)C)cc2)cc(OC)c1OC | 215 to 217

Structure (SMILES) | melting point [°C]
Cc1c(-c2ccccc2)oc2c(OCCCCBr)cccc2c1=O | 91 to 92
N#CCSc1nc(Cl)cc(-c2ccccc2)n1 | 136 to 141
COc1ccc(NC(=O)Nc2ccc(Cl)c(Cl)c2)cc1N | 202 to 204
Cc1ccccc1C(=O)c1ccc(Nc2ccc(Br)cc2NC(=O)OCCl)cc1Cl | 189 to 190
Cc1c(OCC(F)(F)F)ccnc1CS(=O)c1nc2cc(N3CCN(C)CC3)c(F)cc2[nH]1 (centres undefined) | 73 to 74
CCON=C(c1ccccc1COc1cc(C)ccc1C)c1ccnn1C | 74 to 76
C#CCOC(C(=O)Nc1ccccc1-c1ccc(O)c(OC)c1)c1ccc(Cl)cc1 (centres undefined) | 140 to 142
CC(=O)OC1CCC2(C)C(=CCC3C2CCC2(C)C(C(C)CCCC(C)(C)C)CCC32)C1 (centres undefined) | 152 to 153
CCOCc1nc2c(N)nc3cccnc3c2n1CC(C)(C)NC(=O)C1CCCCC1 | 210 to 211
CC(C)NC(=O)Nc1ccc(Oc2ccc3sncc3c2)c(C(F)(F)F)c1 | 158
Nc1ccc(Nc2c(NCc3ccccc3)cc(C(=O)O)cc2S(=O)(=O)Nc2ccccc2N)cc1 | 225
CC(C)[C@H](NC(=O)N(C)Cc1ccccn1)C(=O)N[C@@H](Cc1ccccc1)[C@@H](O)C[C@H](Cc1ccccc1)NC(=O)OC(C)(C)C | 84 to 85
CCCn1c(=O)nc2sc3ccccc3nc-2c1=O | 258
O=C(O)c1ccc2c(Cl)ccnc2c1 | > 235
CCS(=O)(=O)c1ccc(C=O)cc1 | 107 to 109
O=C(CBr)c1ccc(-c2ccc(F)cc2)cc1 | 102 to 103
Cn1cc(C2=C(c3c4n(c5ccccc35)CCCC(CNC(N)=N[N+](=O)[O-])C4)C(=O)NC2=O)c2ccccc21 (centres undefined) | 177 to 178
COC(=O)c1cc([N+](=O)[O-])c(Cl)c(S(=O)(=O)Cl)c1 | 92 to 94
CCC(=O)N1CCC(NC(=O)Nc2c(Cl)cccc2Cl)CC1 | 170 to 174
COc1cc(-c2c(Cl)c(CN3C(=O)CCC3=O)nc3sc4c(c23)CCN(C(C)=O)C4)ccc1OC(C)C | 242 to 243
COC1=C(OC)C(OC)C(C=CC(=O)O)(OC)C=C1C (centres undefined) | 117 to 118
CC(C)(C)OC(=O)N1C[C@@H](O)[C@H](n2ccnn2)C1 (relative stereo) | 91 to 93
C=C1CC2C(CCC3(C)C(OC(C)=O)CCC23)C2(C)CCC(=O)C=C12 (centres undefined) | 138 to 140
COc1ccccc1-c1ccc(C[C@H](NC(=O)c2c(Cl)cccc2Cl)C(=O)O)cc1Cl | 131
O=C(O)c1cn(-c2ccc(F)cc2)c2c(F)c(N3CCC(n4ccnn4)C3)c(F)cc2c1=O (centres undefined) | 303

Structure (SMILES) | melting point [°C]
COc1ccc(C(=O)C2=C(O)C(=O)N(c3nncs3)C2c2ccc(C(C)(C)C)cc2)cc1 (centres undefined) | 289 to 291
CC(C)n1nc(-c2sc(NC(=O)c3ccc(CN4CCCC4)cc3)nc2-c2ccccc2)ccc1=O | 221 to 222
CCCCCCCCCCCC1=NCCN1CCOCCO | 58 to 60
CCCCc1nc2c(N)nc3cccnc3c2n1CCNC(=O)C(N)CC(C)C (centres undefined) | 60 to 65
CSc1ccc(-c2cc(C(F)(F)F)nn2-c2ccc(C#N)cc2)cc1 | 145 to 147
NC(=O)N1CC(Oc2ccc(C(F)(F)F)cc2)C1 | 176 to 178
C[C@H]1C[C@@](O)(c2ccc(S(=O)(=O)c3ccc4c(c3)CCC(=O)N4C)s2)CCO1 | 80 to 82
CC(C)c1cc(C(C)C)c(C=CCC(=O)O)c(C(C)C)c1 | 201 to 203
O=c1[nH]c(NCCSCc2cccs2)ncc1Cc1cccnc1 | 145 to 148
CN(C)N=Nc1cscc1C(N)=O | 168 to 172
CN(c1cccc2cc(C3=NCC(CCN4C(=O)CCC4=O)S3)[nH]c12)S(=O)(=O)c1cccs1 (centres undefined) | 189 to 191
COC(=O)c1ccc2c(oc3ccccc32)c1C(=O)OC | 123
CCC(=NOC)c1cccc(Oc2nc(OC)cc(OC)n2)c1C(=O)OC | 75 to 77
Nc1ccc2oc(CCC(F)(F)F)cc2c1 | 74
CC(C)n1nc(-c2cnc(N)nc2-c2ccncc2)ccc1=O | 219
CN(C)c1noc(-c2ccc3c(c2)c2cc(-c4ccc(Cl)cc4Cl)c(=O)n(C)c2n3C)n1 | 320 to 324
CC(C)c1nc(N)oc1-c1cccc2ccccc12 | 127 to 129
Fc1c(F)c(F)c(CSc2nc3ccccc3s2)c(F)c1F | 51 to 53
Cc1cccc(NC(=O)n2nc(Oc3cccc(C(F)(F)F)c3)cc2C)c1 | 47 to 49
CCOC(=O)c1ccc(-c2nnc(-c3ccccc3[N+](=O)[O-])o2)cc1 | 127 to 128
COc1cc2c(cc1OC)[C@@H]1CCCC[C@@H]1N=C2c1ccc([N+](=O)[O-])c([N+](=O)[O-])c1 | 162 to 165
CN(C)CC(O)c1c(-c2ccc3ccccc3c2)[nH]c2ccccc12 (centres undefined) | 172 to 174
COc1ccc(C(=O)C#CC(=O)O)c(OC)c1OC | 119 to 121
CC(C)(C)n1nc(Nc2ccccc2)c(C(N)=O)c1N | 225 to 227
CC(C)(C)c1cc(SCc2cccc(-c3nnn[nH]3)c2)cc(C(C)(C)C)c1O | 177 to 178

Structure (SMILES) | melting point [°C]
CCSc1nsc(NC(=O)NC)c1C#N | 246
COc1cc(-c2ccc(O)c(C3(C)CCCCC3)c2)cc(C=C2SC(N(C)C)=NC2=O)c1O | 277 to 279
Cc1noc(NS(=O)(=O)c2ccsc2COc2ccc3c(c2Cl)OCO3)c1Br | 152 to 154
N#Cc1ccc(/C=C/C(=O)/C=C/c2ccc(C#N)cc2)cc1 | 137 to 138
CNC(=O)N1CC(Oc2cccc(F)c2)C1 | 155 to 156
O=C(O)Cc1ccc(-c2ccc(C(CC3CCOCC3)c3ccc(S(=O)(=O)C4CC4)cc3)[nH]2)nc1 (centres undefined) | 124 to 127
O=S(=O)(O)c1cccc(Cl)n1 | 274 to 275
CCCn1nc2c(N)nc3ccccc3c2c1CC(C)(C)O | 188 to 190
CCOC(=O)c1cccc(S(=O)(=O)NC(=O)Nc2nc(C)nc(OC)n2)c1I | 177 to 179
C=CC[C@H]1CCC[C@H](N2C(=O)c3ccccc3C2=O)C(=O)N1CC(=O)OC | 107 to 109
Cc1ccc(N2CSC(=NCc3ccc(C(F)(F)C(F)(F)F)cc3)N(CC(F)(F)F)C2=O)cc1 | 103 to 104
CN(C)Cc1cc(-c2c(-c3ccc(F)cc3)nn3c(Cl)cccc23)nc(NC2CCCC2)n1 | 68 to 75
Clc1ccc(Sc2ccc(-c3ccccc3)s2)cc1 | 85 to 87
O=CNNc1ccc(NC(=S)N2CCCC2)cc1 | 199 to 201
CCCNC(=O)[C@@H](C)NC(=O)OCc1ccccc1 | 116 to 120
CS(=O)(=O)Nc1cc2c(cc1Oc1ccccc1)C(=O)C(Sc1ccccc1)C2 (centres undefined) | 86
Cc1cccc(C)c1NC(=O)NC1(c2ccccc2)CCCC1 | 227 to 229
c1ccc(-c2cc3ccncc3[nH]2)cc1 | 222 to 224
O=C(CCl)N1CCC(c2noc3cc(F)ccc23)CC1 | 101 to 102
CSc1ccc(-c2ccc(C(CCC(=O)O)=NO)cc2)cc1 | 162 to 164
CSc1cccc(NCC2CN(C(=O)Oc3ccccc3)CCO2)c1 (centres undefined) | 114 to 115
Nc1ccc(-c2nc(-c3ccco3)no2)cc1 | 183 to 185
CCOc1ccc2[nH]cc(C(=O)NCc3ccccc3)c(=O)c2n1 | 199
CC(=O)N1CCN=C1Nc1ccnn1-c1ccc(F)cc1 | 162 to 164
